Where “and” joins values, the source holds several entries; their conditions need not be identical. Identical values can stand only once.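 48-hour exposure; five concentrations; linearly interpolated endpoints. The concentration for 50% growth inhibition is given as GI50. TGI: concentration producing complete growth inhibition.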
Legend:
Test in all cases: inhibition of tumour cell growth, NCI panel, 48 h
COLO 205 colon = system: COLO 205 colon
DU-145 prostate = system: DU-145 prostate
HCC-2998 colon = system: HCC-2998 colon
HCT-116 colon = system: HCT-116 colon
HL-60(TB) leukemia = system: HL-60(TB) leukemia
HOP-62 NSCLC = system: HOP-62 NSCLC
HT29 colon = system: HT29 colon
OVCAR-8 ovarian = system: OVCAR-8 ovarian
SK-MEL-2 melanoma = system: SK-MEL-2 melanoma
SW-620 colon = system: SW-620 colon
UO-31 renal = system: UO-31 renal
DLD-1 colon = system: DLD-1 colon
DMS 114 small cell lung = system: DMS 114 small cell lung
DMS 273 small cell lung = system: DMS 273 small cell lung
KM20L2 colon = system: KM20L2 colon
M19-MEL melanoma = system: M19-MEL melanoma
SNB-78 CNS = system: SNB-78 CNS

Row | Compound | TGI (COLO 205 colon) | TGI (DU-145 prostate) | TGI (HCC-2998 colon) | TGI (HCT-116 colon) | TGI (HL-60(TB) leukemia) | TGI (HOP-62 NSCLC) | TGI (HT29 colon) | TGI (OVCAR-8 ovarian) | TGI (SK-MEL-2 melanoma) | TGI (SW-620 colon) | TGI (UO-31 renal) | TGI (DLD-1 colon) | TGI (DMS 114 small cell lung) | TGI (DMS 273 small cell lung) | TGI (KM20L2 colon) | TGI (M19-MEL melanoma) | TGI (SNB-78 CNS) | GI50 (HL-60(TB) leukemia) | GI50 (UO-31 renal)
1 | CCNc1cc2c3c(c1)CCN3CCC2 | > 10 µM | > 10 µM | > 10 µM | > 10 µM | > 10 µM | > 10 µM | > 10 µM | > 10 µM | > 10 µM | > 10 µM | > 10 µM |  |  |  |  |  |  |  | 
2 | COc1ccc(C)cc(=O)c1O | > 100 µM |  |  | > 100 µM | 61.5 µM | > 100 µM | > 100 µM |  | > 100 µM | > 100 µM | > 100 µM | > 100 µM | 50.4 µM | > 100 µM | > 100 µM | > 100 µM | > 100 µM |  | 
3 | Cc1c2ccncc2c(C)c2c1[nH]c1ccc(OCCN(C)C)cc12 | 1.3 µM |  | 0.656 µM | 0.256 µM |  | 1.95 µM | 1.24 µM | 0.543 µM | 1.87 µM | 0.406 µM | 1.75 µM | 0.718 µM |  | 0.321 µM | 1.18 µM | 2.17 µM | 3.2 µM |  | 
4 | CN(C)CC1CCC(CN(C)C)C(=O)C1=O (centres undefined) | 3.5 µM | 30.1 µM | 35.4 µM | 7.55 µM | 7.17 µM | 35.3 µM | 16.5 µM | 9.08 µM | 34.6 µM | 3.33 µM | 11 µM | 7.25 µM | 12.9 µM | 31.2 µM | 30.8 µM | 33.9 µM |  |  | 
5 | [N-]=[N+]=NCC(O)Cn1cnc2c(NC(=O)c3ccccc3)ncnc21 (centres undefined) | 76.9 µM |  | > 100 µM | > 100 µM | > 100 µM | > 100 µM | > 100 µM | > 100 µM | > 100 µM | > 100 µM | > 100 µM | > 100 µM | > 100 µM | > 100 µM | > 100 µM | > 100 µM | > 100 µM |  | 
6 | O=c1[nH]nc(Cc2ccc(Cl)cc2)n1/N=C/c1ccc([N+](=O)[O-])o1 | > 20.1 µM | > 36.7 µM | 4.82 µM | 3.2 µM | > 26.1 µM | 24.8 µM | > 41.1 µM | > 32.2 µM | 12.4 µM | > 21.6 µM | > 24 µM |  |  |  |  |  |  |  | 
7 | N/C(=N\N=C\c1ncccc1O)NO | > 39.8 µM |  | > 100 µM | > 100 µM | > 26.5 µM | > 93 µM | > 100 µM | > 100 µM | > 100 µM | > 100 µM | > 86.2 µM | > 100 µM | > 100 µM | > 59.4 µM | > 100 µM | > 78.6 µM | > 100 µM |  | 
8 | NC(=O)CN1C=CCC(C(N)=O)=C1 | > 100 µM | > 100 µM | > 100 µM | > 100 µM | > 100 µM | > 100 µM | > 100 µM | > 100 µM | > 100 µM | > 100 µM | > 100 µM |  |  |  |  |  |  |  | 
9 | N#Cc1c(N)nc2c3c1NC(=O)C(C(N)=O)C3c1ccccc1O2 (centres undefined) | > 100 µM | > 100 µM | > 100 µM | > 100 µM | > 100 µM | > 100 µM | > 100 µM | > 100 µM | > 100 µM | > 100 µM | > 100 µM |  |  |  |  |  |  |  | 
10 | Cc1nc(Nc2ccccc2Cl)sc1C(=O)CC(=O)C(N)=O | > 100 µM | > 100 µM | > 100 µM | > 100 µM | > 100 µM | > 100 µM | > 100 µM | > 100 µM | > 100 µM | > 100 µM | > 100 µM |  |  |  |  |  |  |  | 
11 | CC(C)CCOC(=O)NC(Nc1ccc(F)cc1)(C(F)(F)F)C(F)(F)F | 42.1 µM | > 100 µM | > 100 µM | > 100 µM | > 100 µM | > 100 µM | > 100 µM | > 100 µM | > 100 µM | > 100 µM | 36.5 µM |  |  |  |  |  |  |  | 
12 | CC(CNC(N)=O)NC(N)=O (centres undefined) | > 100 µM | > 100 µM | > 100 µM | > 100 µM | > 100 µM | > 100 µM | > 100 µM | > 100 µM | > 100 µM | > 100 µM | > 100 µM |  |  |  |  |  |  |  | 
13 | CCSC1=CC2(O)N(CCc3ccc(OC)c(OC)c3)C(=O)CC2(C(=O)OC)CC1=O (centres undefined) | > 100 µM | 32.6 µM | 36 µM | 32.1 µM | 73.5 µM | 34.7 µM | 32.9 µM | 31 µM | 38.9 µM | 59 µM | 33.1 µM |  |  |  |  |  |  |  | 
14 | O=[Se](O)O | > 60.3 µM | 10.8 µM | > 100 µM | 15.6 µM | > 100 µM | 1.95 µM | > 91.8 µM | 8.83 µM | > 39.4 µM | > 100 µM | 7.36 µM |  |  |  |  |  |  |  | 
15 | C=C1C(C)C2C(Cc3ccccc3)NC(=O)C23OC(=O)/C=C\CC(=O)CCC(C)C/C=C/C3C1O (centres undefined) | 5.09 µM |  | 18.5 µM | 7.35 µM |  | 7.33 µM | 11.1 µM | 16.7 µM | 8.35 µM | 3.82 µM | 2.72 µM | 3.36 µM | 6.61 µM | 14.1 µM | 15.8 µM | 12.5 µM | 2.08 µM | 0.158 µM and 0.755 µM | 0.913 µM
16 | NC(N)=NC1C(O)C(O)C(O)C(N=C(N)N)C1O (centres undefined) | > 100 µM | > 100 µM | > 100 µM | > 100 µM | > 100 µM | > 100 µM | > 100 µM | > 100 µM | > 100 µM | > 100 µM | > 100 µM |  |  |  |  |  |  |  | 
17 | Cc1cc(S(=O)(=O)/N=C(/NN)Nc2ccc(Cl)cc2)c(S)cc1Cl | 33 µM | 17.2 µM | 23.8 µM | 20 µM | 63.8 µM | 28 µM | 49.2 µM | 27.3 µM | 76.9 µM | 35.9 µM | 18 µM |  |  |  |  |  |  |  | 

From PubChem BioAssay (NCI)
